Measurements as given in ChEMBL document CHEMBL1201862, “PubChem BioAssay data set” (2004).
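Briefly, cells in 96-well plates were exposed to five compound concentrations for 48 h, and endpoints were estimated by linear interpolation. Here, GI50 denotes the concentration required for 50% inhibition of growth.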 Active and inactive are the calls of the source. No stated cut-off is given here; in the data, active = GI50 up to about 1.1 µM and inactive = higher.

How the values were obtained:
Experiment in all cases: NCI anticancer screen, dose series, 48 h
A498 = system: A498
ACHN = system: ACHN
BT-549 = system: BT-549
HCT-116 = system: HCT-116
HOP-92 = system: HOP-92
M14 = system: M14
MOLT-4 = system: MOLT-4
NCI-H460 = system: NCI-H460
NCI-H522 = system: NCI-H522
NCI/ADR-RES = system: NCI/ADR-RES
OVCAR-4 = system: OVCAR-4
OVCAR-5 = system: OVCAR-5
PC-3 = system: PC-3
RPMI-8226 = system: RPMI-8226
RXF 393 = system: RXF 393
SK-MEL-2 = system: SK-MEL-2
SK-MEL-5 = system: SK-MEL-5
SNB-75 = system: SNB-75
UACC-257 = system: UACC-257

Measured: GI50

Cn1c(=O)c2nc(SCCN3CCOCC3)[nH]c2n(C)c1=S
inactive: A498 > 100 µM | ACHN > 100 µM | BT-549 > 100 µM | HCT-116 > 100 µM | HOP-92 > 100 µM | M14 > 100 µM | MOLT-4 > 100 µM | NCI-H460 > 100 µM | NCI-H522 > 100 µM | NCI/ADR-RES > 100 µM | OVCAR-4 > 100 µM | OVCAR-5 > 100 µM | PC-3 > 100 µM | RPMI-8226 > 100 µM | RXF 393 > 100 µM | SK-MEL-2 > 100 µM | SK-MEL-5 > 100 µM | SNB-75 > 100 µM | UACC-257 > 100 µM

COc1cc2c(OC)c3cc(C)oc(=O)c3c(O)c2c(O)c1-c1c(OC)cc2c(OC)c3cc(C)oc(=O)c3c(O)c2c1O
inactive: A498 24.2 µM | ACHN 16.5 µM | BT-549 24.5 µM | HCT-116 14.9 µM | HOP-92 16.1 µM | M14 18.1 µM | MOLT-4 15.7 µM | NCI-H460 21.6 µM | NCI-H522 18.7 µM | NCI/ADR-RES 17.1 µM | OVCAR-4 39.1 µM | OVCAR-5 19.7 µM | PC-3 14 µM | RPMI-8226 17.3 µM | RXF 393 20.1 µM | SK-MEL-2 17.5 µM | SK-MEL-5 16.7 µM | SNB-75 45.1 µM | UACC-257 20.2 µM

Cc1ccc(-c2[nH]c(=O)n(C3OC(CO)C(O)C(O)C3O)c(=O)c2C#N)cc1 (stereo not drawn)
inactive: A498 > 100 µM | ACHN > 100 µM | BT-549 > 100 µM | HCT-116 > 100 µM | HOP-92 > 100 µM | M14 > 100 µM | MOLT-4 > 100 µM | NCI-H460 > 100 µM | NCI-H522 > 100 µM | NCI/ADR-RES > 100 µM | OVCAR-4 > 100 µM | OVCAR-5 > 100 µM | PC-3 > 100 µM | RPMI-8226 > 100 µM | RXF 393 > 100 µM | SK-MEL-2 > 100 µM | SK-MEL-5 > 100 µM | SNB-75 > 100 µM | UACC-257 > 100 µM

Oc1cc(Br)cc2cccnc12
inactive: A498 8.36 µM | ACHN 2.63 µM | BT-549 5.15 µM | HCT-116 1.78 µM | HOP-92 5.15 µM | M14 1.37 µM | MOLT-4 1.35 µM | NCI-H460 1.31 µM | NCI-H522 1.64 µM | NCI/ADR-RES 1.25 µM | OVCAR-4 1.25 µM | OVCAR-5 5.12 µM | PC-3 3.17 µM | RPMI-8226 1.31 µM | RXF 393 2.05 µM | SK-MEL-2 15.6 µM | SK-MEL-5 2.38 µM | SNB-75 15.2 µM | UACC-257 2.6 µM

C=C(CCC/C(C)=C/C=C/[C@@H](C)CCCc1ccoc1)C[C@@H]1OC(=O)[C@H](C)[C@@H]1O
inactive: A498 7.26 µM | ACHN 7.59 µM | BT-549 8.95 µM | HCT-116 13.3 µM | HOP-92 10.6 µM | M14 9.33 µM | MOLT-4 16.1 µM | NCI-H460 11 µM | NCI-H522 7.08 µM | NCI/ADR-RES 9.04 µM | OVCAR-4 10.2 µM | OVCAR-5 18.4 µM | PC-3 7.31 µM | RPMI-8226 12.8 µM | RXF 393 10.3 µM | SK-MEL-2 8.18 µM | SK-MEL-5 6.3 µM | SNB-75 9.77 µM | UACC-257 6.35 µM

C[C@]12[C@@H]3CC[C@H]1[C@@H](O)C(=O)N2CC3
inactive: A498 > 100 µM | ACHN > 100 µM | BT-549 > 100 µM | HCT-116 > 100 µM | HOP-92 > 100 µM | M14 > 100 µM | MOLT-4 > 100 µM | NCI-H460 > 100 µM | NCI-H522 > 100 µM | NCI/ADR-RES > 100 µM | OVCAR-4 > 100 µM | OVCAR-5 > 100 µM | PC-3 > 100 µM | RPMI-8226 > 100 µM | RXF 393 > 100 µM | SK-MEL-2 > 100 µM | SK-MEL-5 > 100 µM | SNB-75 > 100 µM | UACC-257 > 100 µM

CCOc1ccc(C2Oc3c(cccc3OC)C=C2[N+](=O)[O-])cc1OCC (stereo not drawn)
inactive: A498 9.57 µM | ACHN 3.71 µM | BT-549 5.96 µM | HCT-116 1.5 µM | HOP-92 12.6 µM | M14 2.38 µM | MOLT-4 4.22 µM | NCI-H460 7.28 µM | NCI-H522 1.84 µM | NCI/ADR-RES 3.15 µM | OVCAR-4 10.9 µM | OVCAR-5 9.59 µM | PC-3 9.33 µM | RPMI-8226 2.27 µM | RXF 393 3 µM | SK-MEL-2 5.64 µM | SK-MEL-5 4.8 µM | SNB-75 13.8 µM | UACC-257 3.66 µM
